Source: PubChem BioAssay (NCI)
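Five concentrations, 48 hours, 96-well plates. TGI marks complete inhibition of growth.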

Test system: MDA-MB-435
Assay: growth of human tumour cells (NCI), 48 h

| Compound | TGI [µM] |
| --- | --- |
| NC(=S)N=Nc1c(O)cc(Nc2ccc(Cl)cc2Cl)c2ccccc12 | > 100 |
| CC[P+](C#Cc1ccccc1)(c1ccccc1)c1ccccc1 | 2.83 |
| Cc1ccc(C(=O)c2[nH]c(Nc3cc(C)ccn3)c(C(=S)Nc3ccccc3)c2N)cc1 | > 100 |
| CC(C)Cc1c(C#N)c(C#N)c(N)n1Cc1ccccc1 | > 100 |
| CNc1ccc2c(c1)Cc1ccccc1-2 | 69.3 |
| CCOC(=O)c1csc(NC(=O)CCCC#N)n1 | > 100 |
| O=c1cc(-c2ccccc2F)[nH]c2cc3c(cc12)OCO3 | 0.0217 |
| CC(C)(C)c1ccc2c(c1)OCc1n[nH]c(n1)COc1cc(C(C)(C)C)ccc1OCCOCCO2 | 11.5 |
| COc1ccc(CCCCl)c(C2=NCCc3ccccc32)c1 | > 100 |
| O=C(CN=C(CN(c1ccccc1)c1ccccc1)Oc1c(Cl)cc(Cl)cc1Cl)n1cnc2ccccc21 | > 100 |
| Nc1n[nH]c2ccccc12 | > 100 |
| COC(=O)[C@H]1C=C[C@H](OC2OC(COC(C)=O)C(OC(C)=O)C(OC(C)=O)C2OC(C)=O)n2c(=O)n(-c3ccccc3)c(=O)n21 (some centres undefined) | 16.6 |

Test system: HOP-62 NSCLC
Assay: growth of human tumour cells (NCI), 48 h

| Compound | TGI [µM] |
| --- | --- |
| CC1(C)[C@@H]2C[C@H]1c1cnc(-c3ccccn3)cc1[C@H]2C(O)[C@@H]1c2cc(-c3ccccn3)ncc2[C@H]2C[C@@H]1C2(C)C (some centres undefined) | 5.58 |
| CCOC(=O)Cc1nn2c(=O)cc(C)nc2s1 | > 100 |
| COP(=O)(CC(=O)C1OC(OCc2ccccc2)C(OCc2ccccc2)C(OCc2ccccc2)C1OCc1ccccc1)OC (centres undefined) | > 100 |
| OC(c1ccco1)C(F)(F)c1nc2ccccc2o1 (centres undefined) | > 100 |
| CCOC1NC(=O)c2ccccc21 (centres undefined) | > 100 |
| CCN(C(=O)N[C@H](C(=O)N[C@@H](C)C(=O)OC)C(C)C)c1ccccc1 | > 100 |
| Cc1cn(C2CC(OC(c3ccccc3)(c3ccccc3)c3ccccc3)C(COC(c3ccccc3)(c3ccccc3)c3ccccc3)O2)c(=O)[nH]c1=O (centres undefined) | > 100 |
| Cc1cc2c(cc1Cl)SC(NNc1cnc3ccccc3n1)=NS2(=O)=O | > 100 |
| O=CN(O)CC(=O)O | > 100 |
| C(=N/Nc1ccc(-c2nc3ccccc3[nH]2)cc1)/c1c(-c2ccccc2)[nH]c2ccccc12 | 30.9 |
| O=S1(=O)c2ccccc2NC(=S)N1c1ccccc1 | > 100 |
| COC(=O)C(CCSC)NC(=O)CSc1nnc(COc2ccc(Cl)cc2)n1-c1ccccc1 (centres undefined) | 23.8 |
| Cc1ccc(-n2cc(-c3ccc(Cl)cc3)c3c2N=CN2NC(c4ccco4)=NC32)cc1 (centres undefined) | 24 |
| COc1cc(/C=C/c2cc(=O)cc(/C=C/c3ccc(O)c(OC)c3)o2)ccc1O | > 63.8 |
| COn1cc(CO)c2ccccc21 | > 100 |
| NNC(=O)c1cccc2c1Oc1ccccc1S2 | > 100 |
| COc1cc2nc(-c3c(F)cccc3F)n(Cc3c(F)cccc3F)c2cc1Cc1c(F)cccc1F | > 100 |
| O=C(/C=C1\C[C@H]2C=Nc3ccccc3C(=O)N2C1)NCCCCCNC(=O)/C=C1\C[C@H]2C=Nc3ccccc3C(=O)N2C1 | 31.8 |
| NC(=S)N=Nc1c(O)cc(Nc2ccc(Cl)cc2Cl)c2ccccc12 | 22.4 |
| CC[P+](C#Cc1ccccc1)(c1ccccc1)c1ccccc1 | 8.94 |
| Cc1ccc(C(=O)c2[nH]c(Nc3cc(C)ccn3)c(C(=S)Nc3ccccc3)c2N)cc1 | > 100 |
| CC(C)Cc1c(C#N)c(C#N)c(N)n1Cc1ccccc1 | > 100 |
| CNc1ccc2c(c1)Cc1ccccc1-2 | > 100 |
| CCOC(=O)c1csc(NC(=O)CCCC#N)n1 | > 100 |
| O=c1cc(-c2ccccc2F)[nH]c2cc3c(cc12)OCO3 | > 21 |
| CC(C)(C)c1ccc2c(c1)OCc1n[nH]c(n1)COc1cc(C(C)(C)C)ccc1OCCOCCO2 | 19.2 |
| COc1ccc(CCCCl)c(C2=NCCc3ccccc32)c1 | > 100 |
| O=C(CN=C(CN(c1ccccc1)c1ccccc1)Oc1c(Cl)cc(Cl)cc1Cl)n1cnc2ccccc21 | > 100 |
| Nc1n[nH]c2ccccc12 | > 100 |
| COC(=O)[C@H]1C=C[C@H](OC2OC(COC(C)=O)C(OC(C)=O)C(OC(C)=O)C2OC(C)=O)n2c(=O)n(-c3ccccc3)c(=O)n21 (some centres undefined) | 21.1 |

Test system: HOP-92 NSCLC
Assay: growth of human tumour cells (NCI), 48 h

| Compound | TGI [µM] |
| --- | --- |
| CC1(C)[C@@H]2C[C@H]1c1cnc(-c3ccccn3)cc1[C@H]2C(O)[C@@H]1c2cc(-c3ccccn3)ncc2[C@H]2C[C@@H]1C2(C)C (some centres undefined) | 21.8 |
| CCOC(=O)Cc1nn2c(=O)cc(C)nc2s1 | > 100 |
| COP(=O)(CC(=O)C1OC(OCc2ccccc2)C(OCc2ccccc2)C(OCc2ccccc2)C1OCc1ccccc1)OC (centres undefined) | 85.7 |
| OC(c1ccco1)C(F)(F)c1nc2ccccc2o1 (centres undefined) | > 100 |
| CCOC1NC(=O)c2ccccc21 (centres undefined) | > 100 |
| CCN(C(=O)N[C@H](C(=O)N[C@@H](C)C(=O)OC)C(C)C)c1ccccc1 | 78.6 |
| Cc1cn(C2CC(OC(c3ccccc3)(c3ccccc3)c3ccccc3)C(COC(c3ccccc3)(c3ccccc3)c3ccccc3)O2)c(=O)[nH]c1=O (centres undefined) | 83.6 |
| Cc1cc2c(cc1Cl)SC(NNc1cnc3ccccc3n1)=NS2(=O)=O | 77.2 |
| O=CN(O)CC(=O)O | > 100 |
| C(=N/Nc1ccc(-c2nc3ccccc3[nH]2)cc1)/c1c(-c2ccccc2)[nH]c2ccccc12 | > 100 |
| O=S1(=O)c2ccccc2NC(=S)N1c1ccccc1 | 45.3 |
| COC(=O)C(CCSC)NC(=O)CSc1nnc(COc2ccc(Cl)cc2)n1-c1ccccc1 (centres undefined) | 34.6 |
| Cc1ccc(-n2cc(-c3ccc(Cl)cc3)c3c2N=CN2NC(c4ccco4)=NC32)cc1 (centres undefined) | 9.88 |
| COc1cc(/C=C/c2cc(=O)cc(/C=C/c3ccc(O)c(OC)c3)o2)ccc1O | > 100 |
| COn1cc(CO)c2ccccc21 | > 100 |
| NNC(=O)c1cccc2c1Oc1ccccc1S2 | > 100 |
| COc1cc2nc(-c3c(F)cccc3F)n(Cc3c(F)cccc3F)c2cc1Cc1c(F)cccc1F | > 30.8 |
| O=C(/C=C1\C[C@H]2C=Nc3ccccc3C(=O)N2C1)NCCCCCNC(=O)/C=C1\C[C@H]2C=Nc3ccccc3C(=O)N2C1 | 16.1 |
| NC(=S)N=Nc1c(O)cc(Nc2ccc(Cl)cc2Cl)c2ccccc12 | 52.4 |
| CC[P+](C#Cc1ccccc1)(c1ccccc1)c1ccccc1 | 5.9 |
| Cc1ccc(C(=O)c2[nH]c(Nc3cc(C)ccn3)c(C(=S)Nc3ccccc3)c2N)cc1 | > 100 |
| CC(C)Cc1c(C#N)c(C#N)c(N)n1Cc1ccccc1 | > 100 |
| CNc1ccc2c(c1)Cc1ccccc1-2 | 64.1 |
| CCOC(=O)c1csc(NC(=O)CCCC#N)n1 | > 100 |
| O=c1cc(-c2ccccc2F)[nH]c2cc3c(cc12)OCO3 | > 100 |
| CC(C)(C)c1ccc2c(c1)OCc1n[nH]c(n1)COc1cc(C(C)(C)C)ccc1OCCOCCO2 | 14.8 |
| COc1ccc(CCCCl)c(C2=NCCc3ccccc32)c1 | > 100 |
| O=C(CN=C(CN(c1ccccc1)c1ccccc1)Oc1c(Cl)cc(Cl)cc1Cl)n1cnc2ccccc21 | > 100 |
| Nc1n[nH]c2ccccc12 | > 100 |
| COC(=O)[C@H]1C=C[C@H](OC2OC(COC(C)=O)C(OC(C)=O)C(OC(C)=O)C2OC(C)=O)n2c(=O)n(-c3ccccc3)c(=O)n21 (some centres undefined) | 3.9 |

Test system: OVCAR-4 ovarian
Assay: growth of human tumour cells (NCI), 48 h

| Compound | TGI [µM] |
| --- | --- |
| CC1(C)[C@@H]2C[C@H]1c1cnc(-c3ccccn3)cc1[C@H]2C(O)[C@@H]1c2cc(-c3ccccn3)ncc2[C@H]2C[C@@H]1C2(C)C (some centres undefined) | > 9.95 |
| CCOC(=O)Cc1nn2c(=O)cc(C)nc2s1 | > 100 |
